Assay results taken from PubChem BioAssay (NCI).
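The concentration for 50% growth inhibition is given as GI50. The concentration for full growth arrest is given as TGI.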

How the values were obtained:
Experiment in all cases: NCI-60 cell line screen, 384-well format
LOX IMVI melanoma = system: LOX IMVI melanoma
HOP-62 NSCLC = system: HOP-62 NSCLC
SK-MEL-28 melanoma = system: SK-MEL-28 melanoma
M14 melanoma = system: M14 melanoma
NCI-H522 lung = system: NCI-H522 lung
MDA-MB-231 breast = system: MDA-MB-231 breast
T-47D breast = system: T-47D breast
MOLT-4 leukemia = system: MOLT-4 leukemia
SF-539 CNS = system: SF-539 CNS
U251 glioblastoma = system: U251 glioblastoma
SF-295 CNS = system: SF-295 CNS
SW-620 colon = system: SW-620 colon
HCT-116 colon = system: HCT-116 colon
HS 578T breast = system: HS 578T breast
UO-31 renal = system: UO-31 renal
BT-549 breast = system: BT-549 breast
EKVX NSCLC = system: EKVX NSCLC
COLO 205 colon = system: COLO 205 colon
DU-145 prostate = system: DU-145 prostate
MALME-3M melanoma = system: MALME-3M melanoma
HCT-15 colon = system: HCT-15 colon
SN12C renal = system: SN12C renal
CAKI-1 renal = system: CAKI-1 renal
SNB-19 CNS = system: SNB-19 CNS
HOP-92 NSCLC = system: HOP-92 NSCLC
MDA-MB-468 breast = system: MDA-MB-468 breast
OVCAR-4 ovarian = system: OVCAR-4 ovarian
SNB-75 CNS = system: SNB-75 CNS
UACC-257 melanoma = system: UACC-257 melanoma
K-562 leukemia = system: K-562 leukemia
KM12 colon = system: KM12 colon
NCI-H460 NSCLC = system: NCI-H460 NSCLC
RPMI-8226 leukemia = system: RPMI-8226 leukemia
HT29 colon = system: HT29 colon
SR leukemia = system: SR leukemia
NCI-H322M lung = system: NCI-H322M lung
786-0 renal = system: 786-0 renal
A549 NSCLC = system: A549 NSCLC
TK-10 renal = system: TK-10 renal
RXF 393 renal = system: RXF 393 renal
UACC-62 melanoma = system: UACC-62 melanoma
OVCAR-3 ovarian = system: OVCAR-3 ovarian
NCI/ADR-RES ovarian = system: NCI/ADR-RES ovarian
ACHN renal = system: ACHN renal
OVCAR-8 ovarian = system: OVCAR-8 ovarian
SK-OV-3 ovarian = system: SK-OV-3 ovarian
NCI-H226 lung = system: NCI-H226 lung
SF-268 CNS = system: SF-268 CNS
SK-MEL-5 melanoma = system: SK-MEL-5 melanoma
PC-3 prostate = system: PC-3 prostate
HL-60(TB) leukemia = system: HL-60(TB) leukemia
CCRF-CEM leukemia = system: CCRF-CEM leukemia
NCI-H23 lung = system: NCI-H23 lung
MCF7 breast = system: MCF7 breast
A498 renal = system: A498 renal
MDA-MB-435 melanoma = system: MDA-MB-435 melanoma
HCC-2998 colon = system: HCC-2998 colon
IGROV1 ovarian = system: IGROV1 ovarian

CS(=O)(=O)N1CCc2c(-c3cnc(N)nc3)nc(N3CCOCC3)nc21
GI50 (LOX IMVI melanoma): 1.01 µM | TGI (LOX IMVI melanoma): 28.4 µM | GI50 (HOP-62 NSCLC): 1.34 µM | TGI (HOP-62 NSCLC): > 100 µM | GI50 (SK-MEL-28 melanoma): 0.673 µM | TGI (SK-MEL-28 melanoma): 8.52 µM | GI50 (M14 melanoma): 0.932 µM | TGI (M14 melanoma): > 100 µM | GI50 (NCI-H522 lung): 0.71 µM | TGI (NCI-H522 lung): > 100 µM | GI50 (MDA-MB-231 breast): 0.9 µM | TGI (MDA-MB-231 breast): > 100 µM | GI50 (T-47D breast): 0.0317 µM | TGI (T-47D breast): 0.396 µM | GI50 (MOLT-4 leukemia): 0.252 µM | TGI (MOLT-4 leukemia): 1.55 µM | GI50 (SF-539 CNS): 1.12 µM | TGI (SF-539 CNS): 14.1 µM | GI50 (U251 glioblastoma): 2.64 µM | TGI (U251 glioblastoma): > 100 µM | GI50 (SF-295 CNS): 0.537 µM | TGI (SF-295 CNS): 2.99 µM | GI50 (SW-620 colon): 2.64 µM | TGI (SW-620 colon): > 100 µM | GI50 (HCT-116 colon): 1.06 µM | TGI (HCT-116 colon): > 100 µM | GI50 (HS 578T breast): 0.465 µM | TGI (HS 578T breast): 3 µM | GI50 (UO-31 renal): 0.489 µM | TGI (UO-31 renal): 7.6 µM | GI50 (BT-549 breast): 1.05 µM | TGI (BT-549 breast): 5.67 µM | GI50 (EKVX NSCLC): 0.411 µM | TGI (EKVX NSCLC): 3.83 µM | GI50 (COLO 205 colon): 0.477 µM | TGI (COLO 205 colon): > 100 µM | GI50 (DU-145 prostate): 0.661 µM | TGI (DU-145 prostate): 8.57 µM | GI50 (MALME-3M melanoma): 0.281 µM | TGI (MALME-3M melanoma): 2.18 µM | GI50 (HCT-15 colon): 0.445 µM | TGI (HCT-15 colon): > 100 µM | GI50 (SN12C renal): 0.433 µM | TGI (SN12C renal): 5.54 µM | GI50 (CAKI-1 renal): 0.335 µM | TGI (CAKI-1 renal): 3.51 µM | GI50 (SNB-19 CNS): 5.41 µM | TGI (SNB-19 CNS): > 100 µM | GI50 (HOP-92 NSCLC): 0.248 µM | TGI (HOP-92 NSCLC): 2.59 µM | GI50 (MDA-MB-468 breast): 0.391 µM | TGI (MDA-MB-468 breast): 2.32 µM | GI50 (OVCAR-4 ovarian): 1.65 µM | TGI (OVCAR-4 ovarian): 7.87 µM | GI50 (SNB-75 CNS): 0.391 µM | TGI (SNB-75 CNS): 3.6 µM | GI50 (UACC-257 melanoma): 2.12 µM | TGI (UACC-257 melanoma): > 100 µM | GI50 (K-562 leukemia): 3.65 µM | TGI (K-562 leukemia): > 100 µM | GI50 (KM12 colon): 2.23 µM | TGI (KM12 colon): > 100 µM | GI50 (NCI-H460 NSCLC): 0.256 µM | TGI (NCI-H460 NSCLC): 31.3 µM | GI50 (RPMI-8226 leukemia): 0.461 µM | TGI (RPMI-8226 leukemia): 2.47 µM | GI50 (HT29 colon): 0.334 µM | TGI (HT29 colon): > 100 µM | GI50 (SR leukemia): 0.116 µM | TGI (SR leukemia): 0.551 µM | GI50 (NCI-H322M lung): 0.426 µM | TGI (NCI-H322M lung): 9.38 µM | GI50 ([…]-0 renal): 1.71 µM | TGI (786-0 renal): 17.8 µM | GI50 (A549 NSCLC): 0.806 µM | TGI (A549 NSCLC): 16.9 µM | GI50 (TK-10 renal): 0.421 µM | TGI (TK-10 renal): 4.97 µM | GI50 (RXF 393 renal): 1.16 µM | TGI (RXF 393 renal): 4.97 µM | GI50 (UACC-62 melanoma): 0.739 µM | TGI (UACC-62 melanoma): 4.09 µM | GI50 (OVCAR-3 ovarian): 0.752 µM | TGI (OVCAR-3 ovarian): 6.66 µM | GI50 (NCI/ADR-RES ovarian): 2.6 µM | TGI (NCI/ADR-RES ovarian): > 100 µM | GI50 (ACHN renal): 0.719 µM | TGI (ACHN renal): 15.9 µM | GI50 (OVCAR-8 ovarian): 1.01 µM | TGI (OVCAR-8 ovarian): > 100 µM | GI50 (SK-OV-3 ovarian): 0.17 µM | TGI (SK-OV-3 ovarian): 1.36 µM | GI50 (NCI-H226 lung): 0.38 µM | TGI (NCI-H226 lung): 3.94 µM | GI50 (SF-268 CNS): 1.7 µM | TGI (SF-268 CNS): > 100 µM | GI50 (SK-MEL-5 melanoma): 1.23 µM | TGI (SK-MEL-5 melanoma): 7.9 µM | GI50 (PC-3 prostate): 0.34 µM | TGI (PC-3 prostate): 4.45 µM | GI50 (HL-60(TB) leukemia): 0.192 µM | TGI (HL-60(TB) leukemia): > 100 µM | GI50 (CCRF-CEM leukemia): 0.722 µM | TGI (CCRF-CEM leukemia): 30.4 µM | GI50 (NCI-H23 lung): 0.826 µM | TGI (NCI-H23 lung): > 100 µM | GI50 (MCF7 breast): 0.0473 µM | TGI (MCF7 breast): > 100 µM | GI50 (A498 renal): 0.428 µM | TGI (A498 renal): 2.73 µM | GI50 (MDA-MB-435 melanoma): 1.49 µM | TGI (MDA-MB-435 melanoma): 94.5 µM | GI50 (HCC-2998 colon): 1.42 µM | TGI (HCC-2998 colon): > 100 µM | GI50 (IGROV1 ovarian): 0.123 µM | TGI (IGROV1 ovarian): 0.568 µM
